Test results: patent US20250041434A1, “CEA ASSAY FOR PATIENT SELECTION IN CANCER THERAPY” (SANOFI, priority 2021, published 2025)

How the values were obtained:
cancer cells = experiment: cytotoxic activity of ADC metabolites; format: cell-based; conditions: through binding to tubulin and inhibition of microtubule polymerization
CEACAM8 = biological target: T1, CEACAM8 (Homo sapiens, UniProt P31997); experiment: recognition of other CEACAMs; format: binding
T1 sequence (P31997 35-320): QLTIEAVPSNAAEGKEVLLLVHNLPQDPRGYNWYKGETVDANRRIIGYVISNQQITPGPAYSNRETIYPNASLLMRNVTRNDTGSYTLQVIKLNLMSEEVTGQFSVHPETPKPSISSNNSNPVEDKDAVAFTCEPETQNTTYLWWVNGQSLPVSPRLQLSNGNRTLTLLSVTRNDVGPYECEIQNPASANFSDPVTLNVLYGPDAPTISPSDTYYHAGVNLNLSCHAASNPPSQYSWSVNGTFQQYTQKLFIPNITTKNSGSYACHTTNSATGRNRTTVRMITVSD

[1] = biological target: T2, A3B3 domain of human CEACAM5 (Homo sapiens, UniProt P06731); experiment: domain specificity of binding
T2 sequence (P06731 499-685 limits assumed): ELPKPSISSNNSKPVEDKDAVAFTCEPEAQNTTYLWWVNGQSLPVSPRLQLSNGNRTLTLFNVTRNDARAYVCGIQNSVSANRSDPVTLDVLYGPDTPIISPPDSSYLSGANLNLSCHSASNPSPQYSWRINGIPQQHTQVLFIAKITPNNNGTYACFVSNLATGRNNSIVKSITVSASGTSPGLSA

tumor cells = conditions: see WO 2014/079886; cited from earlier work
[2] = Phase 1/2 study adverse drug reactions; format: in vivo, human; conditions: heavily pre-treated high CEACAM5 expressers for NSCLC
Experimental: The ADC was analyzed in a Phase 1/2 study in heavily pre-treated high CEACAM5 expressers for NSCLC.

[3] = TED13751 Main dose escalation, maximum tolerated dose; format: in vivo, human; conditions: q2w, IV infusion
Description: The dose escalation decision will be based on the dose limiting toxicities (DLTs) observed during Cycle 1+Cycle 2 in q2w cycle and during Cycle 1 in q3w cycle, whether related or not to the investigational medicinal product (IMP) in the absence of clear evidence to the contrary after validation by the Study Committee, and if not related to the progression of disease. Before escalating the tusamitamab ravtansine dose to the next level, the safety data, and especially DLTs, ocular and cardiac adverse events (AEs) will be reviewed by the Study Committee. Cumulative toxicities observed on subsequent administrations will also be considered for the dose escalation process and the dose selection decision. […]
For the accelerated dose escalation phase, as well as for the Bayesian EWOC, a minimum of […] duration (˜4 weeks) will be mandatory between the last patient who has received Day 1 of Cycle 1 at DL n, and the first patient who will receive Day 1 of Cycle 1 at DL n+1. The dose determined to be the maximum tolerated dose (MTD) will be tested further in the Expansion cohorts.
The first loading dose tested will be 120 mg/m^2; if this first dose is safe, then dose escalation will proceed to test next 135 mg/m^2, and 150 mg/m^2. […] The determined MTD or safe MAD will be used for CRC-L cohort.

[4] = test system: patient-derived CRC xenograft expressing CEACAM5; experiment: circulating CEA in mice engrafted orthotopically with patient-derived CRC xenograft; format: in vivo; conditions: single active dose; rise in circulating CEA occurring with tumor growth
Description: However, specificities linked to the CEACAM5 target would potentially allow a more accurate follow-up of treatment impact on tumor growth by the monitoring CEA levels in the blood. Indeed, measurement of circulating CEA levels is of some use for CRC treatment monitoring. […] Similarly, modulation of circulating CEA may be a useful PDy marker of response to tusamitamab ravtansine. […] The usefulness of monitoring circulating CEA will be explored in this clinical study.

[5] = preliminary experiments on effector activity
[6] = test system: NSQ NSCLC with high CEACAM5 expression; experiment: TED13751 clinical study, tumor response (RECIST 1.1) in NSQ NSCLC high CEACAM5 expressers; format: in vivo, human; conditions: for anti-tumor activity, in words: participants heavily pre-treated for NSQ NSCLC, study TED13751
Experimental: In this cohort of NSQ NSCLC participants with high CEACAM5 expression on tumor (≥2+ in intensity in ≥50%) expansion cohort NSQ NSCLC, 10 out of 13 responding participants had high baseline circulating CEA (≥100 ng/mL).
Expression of CEACAM5 on tumor was assessed using CEACAM5 IHC test and circulating CEA and CEACAM5 assays for patients enrolled in clinical trial TED13751 (NCT02187848).
Circulating CEA was determined locally using the assay which was of routine use in the institution. In vitro diagnostic CEA assays measure CEA not claiming specificity for CEACAM5.
The study will be divided in […] parts: The Escalation Phase and the Expansion Phase.
The expansion phase will be conducted with every 2 weekly dosing schedule. During the Expansion Phase, the population to be treated will be restricted to patients with advanced diseases in colorectal cancer (CRC), NSQ NSCLC, small cell lung cancer (SCLC), and gastric adenocarcinoma (including signet-ring cell carcinoma subtype as well as esophago-gastric junction (EGJ) adenocarcinomas of the Siewert Types II and III). CEACAM5 expression of ≥2+ in intensity involving ≥50% of the tumor cell population will be documented during pre-screening on the most recent archival tissue sample and using local IHC evaluation for patients potentially eligible for study treatment in the gastric adenocarcinoma cohort. There are 2 independent NSQ NSCLC expansion phase cohorts: The first one (Lung cohort) includes patients with high CEACAM5 expression (≥2+ in intensity involving at least 50% of the tumor cell population). The second cohort (Lung bis cohort) will include patients that pre-screened positive at moderate intensity (≥2+ between ≥1% to <50% of the tumor cell population). The SCLC cohort includes patients with CEACAM5 expression of ≥2+ in intensity involving ≥1% of the tumor cell population. […] Full screening will only be done for archival cases meeting the above definition. No CEACAM5 pre-screening is required for CRC patients potentially eligible for the CRC expansion cohort. The level of CEACAM5 expression will be documented essentially retrospectively and centrally on both archival and fresh (baseline sample) tumor tissues. Confirmation of CEACAM5 tumor expression will be done retrospectively in a central laboratory on fresh tumor tissue collected at baseline (mandatory biopsy in the Expansion Phase only, on all patients with CRC and gastric cancer, and on NSQ NSCLC as well as SCLC patients with a lesion amenable to biopsy). If sufficient archived tumor material is available, a central evaluation will also be done retrospectively to gain knowledge on the variability in evaluation of the expression. The results of the retrospective analyses will have no impact on patients' treatment. It will be used for the better interpretation of the overall response, and as the baseline for comparison with CEACAM5 expression upon progression (exploration for loss of CEACAM5 as mechanism of acquired resistance).
In the Expansion cohorts, the assessment of response to tusamitamab ravtansine is a primary objective. All patients treated in the Expansion Phase must have at least one measurable lesion for inclusion. Tumor assessment will be made at least every 4 cycles. Decision to pursue treatment will be based on the response evaluation made by the Investigator, however, measures of lesions will be collected in the electronic case report forms for a determination of response by Sponsor. A partial or complete response must be confirmed on a second examination done at least 4 weeks apart, in order to be documented as a confirmed response to therapy.
The RECIST v1.1 criteria will be followed for assessment of tumor response.

CEACAM1 = biological target: T3, CEACAM1 (Homo sapiens, UniProt P13688); experiment: recognition of other CEACAMs; format: binding
T3 sequence (P13688 35-526): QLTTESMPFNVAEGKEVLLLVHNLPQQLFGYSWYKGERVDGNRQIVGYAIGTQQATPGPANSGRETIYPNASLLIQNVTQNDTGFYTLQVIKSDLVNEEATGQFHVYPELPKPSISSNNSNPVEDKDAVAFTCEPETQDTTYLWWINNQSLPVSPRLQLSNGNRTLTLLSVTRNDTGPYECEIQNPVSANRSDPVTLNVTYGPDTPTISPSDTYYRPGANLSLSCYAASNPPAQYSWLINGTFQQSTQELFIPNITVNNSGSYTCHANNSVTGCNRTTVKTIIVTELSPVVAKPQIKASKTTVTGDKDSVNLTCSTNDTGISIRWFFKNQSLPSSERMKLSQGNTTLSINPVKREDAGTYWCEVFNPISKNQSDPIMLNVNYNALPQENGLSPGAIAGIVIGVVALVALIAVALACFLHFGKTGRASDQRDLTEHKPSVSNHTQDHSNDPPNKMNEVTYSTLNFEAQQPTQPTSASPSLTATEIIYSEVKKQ

[7] = test system: human primary colon and stomach tumors; conditions: mice bearing human primary colon and stomach tumors; see WO 2014/079886; cited from earlier work
CEACAM7 = biological target: T4, CEACAM7 (Homo sapiens, UniProt Q14002); experiment: recognition of other CEACAMs; format: binding
T4 sequence (Q14002 36-242): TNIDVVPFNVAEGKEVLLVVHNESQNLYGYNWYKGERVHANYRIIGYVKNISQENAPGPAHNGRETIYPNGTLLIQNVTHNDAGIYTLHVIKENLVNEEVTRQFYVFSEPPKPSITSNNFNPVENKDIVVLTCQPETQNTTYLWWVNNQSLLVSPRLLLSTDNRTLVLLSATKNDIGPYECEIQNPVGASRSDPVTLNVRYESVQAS

cells expressing CEACAM5 = conditions: see WO 2014/079886; cited from earlier work
[8] = test system: relevant experimental model; experiment: single administration in relevant experimental model; format: in vivo
CEACAM6 = biological target: T5, CEACAM6 (Homo sapiens, UniProt P40199); experiment: recognition of other CEACAMs; format: binding
T5 sequence (P40199 35-320): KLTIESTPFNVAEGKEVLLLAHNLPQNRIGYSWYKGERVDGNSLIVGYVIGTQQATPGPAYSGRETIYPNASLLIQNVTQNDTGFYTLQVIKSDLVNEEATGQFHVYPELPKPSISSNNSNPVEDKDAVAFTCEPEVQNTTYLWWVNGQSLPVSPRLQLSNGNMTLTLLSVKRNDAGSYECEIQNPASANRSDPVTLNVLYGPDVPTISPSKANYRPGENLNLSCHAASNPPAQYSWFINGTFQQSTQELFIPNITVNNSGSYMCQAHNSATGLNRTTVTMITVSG

[9] = Phase 1/2 study, heavily pre-treated high CEACAM5 expressers for NSCLC

With `COc1cc2cc(c1Cl)N(C)C(=O)CC(OC(=O)C(C)N(C)C(=O)CCC(C)(C)S)C1(C)OC1C(C)C1CC(O)(NC(=O)O1)C(OC)/C=C/C=C(\C)C2` (stereo not shown) [DM4, N2′-deacetyl-N-2′(4-methyl-4-mercapto-1-oxopentyl)-maytansine] the cytotoxic activity (cancer cells) was “potent cytotoxic activity”.
For `COc1cc2cc(c1Cl)N(C)C(=O)CC(OC(=O)C(C)N(C)C(=O)CCC(C)(C)SC)C1(C)OC1C(C)C1CC(O)(NC(=O)O1)C(OC)C=CC=C(C)C2` (stereo not shown) [Me-DM4], the cytotoxic activity (cancer cells) was “potent cytotoxic activity”.
For “Tusamitamab ravtansine: immunoconjugate ADC combining humanized anti-CEACAM5 antibody tusamitamab and maytansinoid DM4 via SPDB linker; CAS Registry No. 2254086-60-5”, the “recognition of CEACAM8” value (CEACAM8) is listed as “does not recognize”, the “binding to A3B3 domain of human CEACAM5” value [1] is listed as “specifically binds” and the “cytotoxic activity on tumor cells in vitro” value (tumor cells) is listed as “induce cytotoxic activity”. The hematological/nerve toxicity [2] was “minimal”, the “most common Adverse Drug Reactions (ADRs)” value ([2]; reversible without treatment discontinuation) was “ocular toxicity” and the “maximum tolerated dose (MTD)” value [3] was 100 mg/m^2. The “circulating CEA” value [4] was “prevented a rise in circulating CEA”, the effector activity [5] was “devoid of effector activity” and the “participants who had PR” value ([6]; 100 mg/m^2 Q2W, 64 participants, RECIST 1.1) was 13. For the same compound, the overall response rate ([6]; 100 mg/m^2 Q2W, 64 participants, RECIST 1.1, 95% CI: 12.27% to 31.71%) was 20.3%, the “Duration of Response (DoR), in words” value [6, 9] was “competitive” and the “Overall Response Rate (ORR), in words” value [6, 9] was “competitive”. For the same compound, the “Responses (%)” value ([6]; baseline circulating CEA <5 μg/L (9 patients), 100 mg/m^2 Q2W) was 22.2%, the “Responses (%)” value ([6]; baseline circulating CEA <100 μg/L (37 patients), 100 mg/m^2 Q2W) was 8.1% and the “Responses (%)” value ([6]; baseline circulating CEA >3 μg/L (58 patients), 100 mg/m^2 Q2W) was 22.4%. For the same compound, the “Responses (%)” value ([6]; baseline circulating CEA ≥5 μg/L (53 patients), 100 mg/m^2 Q2W) was 20.8%, the “Responses (%)” value ([6]; baseline circulating CEA ≥100 μg/L (25 patients), 100 mg/m^2 Q2W) was 40.0% and the “share of the 13 responders with baseline circulating CEA level ≥100 μg/L” value ([6]; high expressers cohort, 100 mg/m^2 Q2W) was 77%. For the same compound, the “anti-tumor activity, in words” value [6] was “encouraging anti-tumor activity”, the “anti-tumor activity, in words” value ([6]; listed as tusamitamab ravtansine) was “Encouraging preliminary anti-tumor activity” and the “recognition of CEACAM1” value (CEACAM1) was “does not recognize”. The “tumor growth inhibition in vivo” value [7] was “markedly inhibit tumor growth”, the “recognition of CEACAM7” value (CEACAM7) was “does not recognize” and the “internalization into cells expressing CEACAM5 after binding” value (cells expressing CEACAM5) was “capable of being internalized”. The tumor regressions [8] was “induces regressions” and the “recognition of CEACAM6” value (CEACAM6) was “does not recognize”.
